Laboratory results reported in BindingDB's records for doi:10.1021/jm00022a006 (Eli Lilly, 1995).
pKi: −log10 of the molar value.

target: Leukotriene B4 receptor 1 (Cavia porcellus); assay: Binding affinity towards LTB4 receptor guinea pig spleen cells using [3H]LTB4 as radioligand

pKi | SMILES
8.23 | CCCc1c(OCCCOc2cc(O)c(-c3ccc(F)cc3)cc2CC)cccc1[S+]([O-])c1ccccc1C(=O)O (stereo not drawn) [2-{3-[3-(5-Ethyl-4'-fluoro-2-hydroxy-biphenyl-4-yloxy)-propoxy]-2-propyl-benzenesulfinyl}-benzoic acid]
7.48 | CCCc1c(OCCCOc2cc(O)c(-c3ccc(F)cc3)cc2CC)cccc1C(=O)c1ccccc1C(=O)O [2-{3-[3-(5-Ethyl-4'-fluoro-2-hydroxy-biphenyl-4-yloxy)-propoxy]-2-propyl-benzoyl}-benzoic acid]
7.38 | CCCc1c(OCCCOc2cc(O)c(-c3ccc(F)cc3)cc2CC)cccc1Sc1ccccc1C(=O)O [2-{3-[3-(5-Ethyl-4'-fluoro-2-hydroxy-biphenyl-4-yloxy)-propoxy]-2-propyl-phenylsulfanyl}-benzoic acid]
